Activity calls are given as the source filed them. The calls are words filed in the database; no cut-off is given here.
Columns and labels:
[1] = molecular target: T1, Pteridine reductase 1 (Leishmania major) (UniProt Q01782); test: Binding affinity to Leishmania major PTR1 BL21(DE3) assessed as change in melting temperature at 50 uM by SYPRO orange dye based RT-PCR analysis
T1 sequence (whole entry): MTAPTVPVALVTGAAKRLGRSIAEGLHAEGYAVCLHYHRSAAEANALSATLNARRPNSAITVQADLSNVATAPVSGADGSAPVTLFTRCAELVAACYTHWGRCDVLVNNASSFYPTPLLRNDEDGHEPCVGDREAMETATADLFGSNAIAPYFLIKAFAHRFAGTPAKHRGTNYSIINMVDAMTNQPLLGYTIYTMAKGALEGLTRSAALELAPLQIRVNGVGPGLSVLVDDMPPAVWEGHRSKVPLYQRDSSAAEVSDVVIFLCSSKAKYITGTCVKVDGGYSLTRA

[2] = molecular target: T1, Pteridine reductase 1 (Leishmania major); test: Binding affinity to Leishmania major PTR1 BL21(DE3) assessed as change in melting temperature by SYPRO orange dye based RT-PCR analysis
[3] = molecular target: T1, Pteridine reductase 1 (Leishmania major); test: Competitive inhibition of Leishmania major PTR1 assessed as decrease in thermal shift stabilization at 1 mM in presence of varying levels of biopterin and constant NADPH level by spectrofluorimetric method
[4] = molecular target: T1, Pteridine reductase 1 (Leishmania major); test: Competitive inhibition of Leishmania major PTR1 assessed as decrease in thermal shift stabilization at 1 mM in presence of saturating concentration of biopterin and varying levels of NADPH by spectrofluorimetric method
[5] = molecular target: T1, Pteridine reductase 1 (Leishmania major); test: Inhibition of Leishmania major PTR1 at 50 uM using biopterin as substrate and NADPH as cofactor by spectrofluorimetric method relative to control
Pteridine reductase 1 = molecular target: T2, Pteridine reductase 1 (Leishmania major, UniProt Q01782); test: Inhibition of Leishmania major PTR1 using biopterin as substrate and NADPH as cofactor by spectrofluorimetric method
T2 sequence (Q01782 whole entry): T1 sequence (whole entry)

[6] = molecular target: T1, Pteridine reductase 1 (Leishmania major); test: Noncompetitive inhibition of Leishmania major PTR1 at 1 mM in presence of saturating concentration of biopterin and varying levels of NADPH by spectrofluorimetric method
[7] = molecular target: T1, Pteridine reductase 1 (Leishmania major); test: Noncompetitive inhibition of Leishmania major PTR1 at 1 mM in presence of varying levels of biopterin and constant NADPH level by spectrofluorimetric method

ΔTm [1] [°C] | Activity [2] | inhibition [3] | inhibition [4] | inhibition [5] [%] | IC50 (Pteridine reductase 1) [µM] | inhibition [6] | inhibition [7] | Compound
1.02 | Dose-dependent effect | Active | Active | > 50 | 32.3 | – | – | Cc1sc2ncnc(N/N=C/c3ccccc3)c2c1C
0.91 | Dose-dependent effect | – | – | – | – | Active | Active | CC(N(C)Cc1nc2ccccc2c(=O)[nH]1)C(C)(C)C (stereo not given)

Reference: ChEMBL document CHEMBL4024726, “An integrated approach towards the discovery of novel non-nucleoside Leishmania major pteridine reductase 1 inhibitors” (Eur J Med Chem, 2017)
